Results published in ChEMBL document CHEMBL1154043, “Synthesis and structure-activity relationship of a novel series of heterocyclic sulfonamide gamma-secretase inhibitors” (Bioorg Med Chem, 2009).
Activity calls are given as the source filed them. The calls are words filed in the database; no cut-off is given here.

Columns and labels:
[1] = Inhibition of gamma-secretase-mediated cleavage of human APP expressed in CHO cells assessed as reduction in amyloid beta40 production after 24 hrs by double sandwich ELISA; assay type: cell-based
CHO = test: Inhibition of gamma-secretase-mediated cleavage of human APP expressed in CHO cells assessed as reduction in amyloid beta42 production after 24 hrs by double sandwich ELISA; assay type: cell-based
[2] = Inhibition of gamma-secretase assessed as effect on APP level after 24 hrs by double sandwich ELISA
[3] = Inhibition of gamma-secretase assessed as increase in beta-C-terminal fragment level after 24 hrs by double sandwich ELISA
[4] = molecular target: Gamma-secretase (Homo sapiens) (UniProt Q96BI3+Q9NZ42+Q8WW43+P49768+Q92542+P49810); test: Displacement of [3H](S)-5-chloro-N-(3-ethyl-1-hydroxypentan-2-yl)thiophene-2-sulfonamide from gamma secretase in human SH-SY5Y cells after 1 hr; assay type: cell-based
[5] = Selectivity ratio of EC50 for gamma-secretase-mediated mouse notch cleavage to EC50 for gamma-secretase-mediated amyloid beta40 production
[6] = Inhibition of gamma-secretase-mediated mouse notch cleavage expressed in CHOK1 cells assessed as secreted alkaline phosphatase level after 48 hrs by chemiluminescence assay; assay type: cell-based; conditions: CHO-K1, 48 h

SMILES	EC50 [1] [nM]	Activity [2]	Activity [3]	Activity [4]	Selectivity ratio [5]	EC50 [6] [nM]	Activity (CHO)
Cc1ccc(-n2nccc2C(NS(=O)(=O)c2ccc(Cl)s2)C(C)C)cc1 (configuration not stated)	420	Active	Active	–	–	–	Active
CCC(CC)C(NS(=O)(=O)c1ccc(Br)cc1)c1ccnn1Cc1ccc(OC)cc1 (configuration not stated)	2270	Active	Active	–	–	–	Active
C[C@H](NC(=O)[C@@H](O)c1cc(F)cc(F)c1)C(=O)N[C@@H]1C(=O)N(C)c2ccccc2-c2ccccc21	–	–	–	Active	–	–	–
CCC(CC)C(NS(=O)(=O)c1cc(Cl)c(Cl)s1)c1ccnn1-c1ccccc1 (configuration not stated)	13400	Active	Active	–	–	–	Active
C[C@H](NC(=O)Cc1cc(F)cc(F)c1)C(=O)N[C@H](C(=O)OC(C)(C)C)c1ccccc1	–	–	–	Active	–	–	–
CC(C)C(NS(=O)(=O)c1ccc(Cl)s1)c1ncnn1Cc1ccccc1 (configuration not stated)	3360	Active	Active	–	–	–	Active
Cc1ccc(Cn2ncnc2C(NS(=O)(=O)c2ccc(Cl)s2)C(C)C)cc1 (configuration not stated)	2890	Active	Active	–	–	–	Active
CCC(CC)C(NS(=O)(=O)c1ccc(Cl)c(Cl)c1)c1ccnn1-c1ccccc1 (configuration not stated)	25500	Active	Active	–	–	–	Active
COc1ccc(Cn2cccc2C(NS(=O)(=O)c2ccc(Cl)s2)C(C)C)cc1 (configuration not stated)	13300	Active	Active	–	–	–	Active
CCC(CC)C(NS(=O)(=O)c1ccc(Br)s1)c1ccnn1-c1ccccc1 (configuration not stated)	1530	Active	Active	–	–	–	Active
COc1ccc(-n2nccc2[C@@H](NS(=O)(=O)c2ccc(Cl)s2)C(C)C)cc1	550	Active	Active	–	11	6120	Active
CCC(CC)C(NS(=O)(=O)c1ccc(Cl)cc1)c1ccnn1-c1ccccc1 (configuration not stated)	23000	Active	Active	–	–	–	Active
COc1ccc(Cn2nccc2C(NS(=O)(=O)c2ccc(Cl)s2)C(C)C)cc1 (configuration not stated)	410	Active	Active	–	–	–	Active
COc1ccc(Cn2nccc2C(C)NS(=O)(=O)c2ccc(Cl)s2)cc1 (configuration not stated)	1200	Active	Active	–	–	–	Active
CCC(CC)C(NS(=O)(=O)c1ccc(Cl)cc1)c1ccnn1Cc1ccc(OC)cc1 (configuration not stated)	1980	Active	Active	–	–	–	Active
Cc1ccc(-n2nccc2[C@@H](NS(=O)(=O)c2ccc(Cl)s2)C(C)C)cc1	320	Active	Active	–	39	12600	Active
CC(C)C(NS(=O)(=O)c1ccc(Cl)s1)c1ccnn1-c1ccccc1 (configuration not stated)	1120	Active	Active	–	–	–	Active
CCC(CC)C(NS(=O)(=O)c1ccc(Cl)s1)c1ncnn1Cc1ccc(OC(F)(F)F)cc1 (configuration not stated)	990	Active	Active	–	–	–	Active
CC(C)C(NS(=O)(=O)c1ccc(Cl)s1)c1ccnn1-c1ccc(F)cc1 (configuration not stated)	2760	Active	Active	–	–	–	Active
CC(C)[C@H](NS(=O)(=O)c1ccc(Cl)s1)c1ccnn1-c1ccc(O)cc1	470	Active	Active	–	6.9	3260	Active
CC(C)[C@H](O)C(=O)N[C@@H](C)C(=O)N[C@@H]1C(=O)N(C)CCc2ccccc21	–	–	–	Active	–	–	–
CCC(CC)C(NS(=O)(=O)c1ccc(C#N)cc1)c1ccnn1-c1ccccc1 (configuration not stated)	85200	Active	Active	–	–	–	Active
Cc1ccc(-n2nccc2[C@H](NS(=O)(=O)c2ccc(Cl)s2)C(C)C)cc1	> 15000	Active	Active	–	–	–	Active
CCC(CC)C(c1ccnn1-c1ccccc1)N(C)S(=O)(=O)c1ccc(Br)s1 (configuration not stated)	65100	Active	Active	–	–	–	Active
CC(C)[C@@H](NS(=O)(=O)c1ccc(Cl)s1)c1ccnn1-c1ccc(F)cc1	> 15000	Active	Active	–	–	–	Active
CC(C)[C@H](NS(=O)(=O)c1ccc(Cl)s1)c1ccnn1-c1ccc(F)cc1	1010	Active	Active	–	–	–	Active
CCCC(NS(=O)(=O)c1ccc(Cl)s1)c1ccnn1Cc1ccc(OC)cc1 (configuration not stated)	930	Active	Active	–	–	–	Active
Cc1cccc(-n2nccc2C(NS(=O)(=O)c2ccc(Cl)s2)C(C)C)c1 (configuration not stated)	2530	Active	Active	–	–	–	Active
CCC(CC)C(c1ccnn1-c1ccccc1)N(C)S(=O)(=O)c1ccc(Cl)s1 (configuration not stated)	70200	Active	Active	–	–	–	Active
CCC(CC)C(NC(=O)c1ccc(Cl)cc1)c1ccnn1Cc1ccc(OC)cc1 (configuration not stated)	42400	Active	Active	–	–	–	Active

Further lines, with some results ahead:

EC50 [1] [nM]	Activity [2]	Activity [3]	Activity [4]	Selectivity ratio [5]	EC50 [6] [nM]	SMILES	Activity (CHO)
19500	Active	Active	–	–	–	CCC(CC)C(NS(=O)(=O)c1ccc(Cl)s1)c1ccn[nH]1 (configuration not stated)	Active
1560	Active	Active	–	–	–	CCC(CC)C(NS(=O)(=O)c1ccc(Cl)s1)c1ccnn1-c1ccc(OC)cc1 (configuration not stated)	Active
19400	Active	Active	–	–	–	CCC(CC)C(NS(=O)(=O)c1ccc(Cl)s1)c1nccn1Cc1ccccc1 (configuration not stated)	Active
8500	Active	Active	–	–	–	CCC(CC)[C@@H](NS(=O)(=O)c1ccc(Cl)s1)c1ccnn1Cc1ccc(O)cc1	Active
940	Active	Active	–	–	–	CCC(CC)C(NS(=O)(=O)c1ccc(Cl)s1)c1ncnn1Cc1ccc(OC)cc1 (configuration not stated)	Active
50600	Active	Active	–	–	–	CCC(CC)C(NS(=O)(=O)c1ccc(Cl)s1)c1nccn1Cc1ccc(OC)cc1 (configuration not stated)	Active
880	Active	Active	–	–	–	CCC(CC)C(NS(=O)(=O)c1ccc(Cl)s1)c1ncnn1Cc1ccc(C)cc1 (configuration not stated)	Active
140	Active	Active	–	–	–	CCC(CC)C(NS(=O)(=O)c1ccc(Cl)s1)c1ccnn1Cc1ccc(O)cc1 (configuration not stated)	Active
990	Active	Active	–	4	3970	CCC(CC)[C@H](NS(=O)(=O)c1ccc(Cl)s1)c1ccnn1-c1ccc(OC)cc1	Active
110	Active	Active	–	24	2650	CCC(CC)[C@H](NS(=O)(=O)c1ccc(Cl)s1)c1ccnn1Cc1ccc(OC)cc1	Active
1000	Active	Active	–	–	–	CCCCn1nccc1C(NS(=O)(=O)c1ccc(Cl)s1)C(CC)CC (configuration not stated)	Active
130	Active	Active	–	–	–	CCC(CC)C(NS(=O)(=O)c1ccc(Cl)s1)c1ccnn1Cc1ccc(OC)cc1 (configuration not stated)	Active
> 15000	Active	Active	–	–	–	CCC(CC)[C@@H](NS(=O)(=O)c1ccc(Cl)s1)c1ccnn1Cc1ccc(OC)cc1	Active
2190	Active	Active	–	–	–	CCC(CC)C(NS(=O)(=O)c1ccc(Cl)s1)c1ccnn1-c1ccc(C(F)(F)F)cc1 (configuration not stated)	Active
480	Active	Active	–	–	–	CCC(CC)C(NS(=O)(=O)c1ccc(Cl)s1)c1ncnn1Cc1ccc(F)cc1 (configuration not stated)	Active
1010	Active	Active	–	–	–	CCC(CC)C(NS(=O)(=O)c1ccc(Cl)s1)c1ncnn1Cc1ccccc1 (configuration not stated)	Active
1620	Active	Active	–	–	–	CCC(CC)C(NS(=O)(=O)c1ccc(Cl)s1)c1ccnn1-c1ccccc1 (configuration not stated)	Active
630	Active	Active	–	–	–	CCC(CC)C(NS(=O)(=O)c1ccc(Cl)s1)c1ccnn1-c1ccc(O)cc1 (configuration not stated)	Active
1680	Active	Active	–	–	–	CCC(CC)C(NS(=O)(=O)c1ccc(Cl)s1)c1ccnn1S(=O)(=O)c1ccc(C)cc1 (configuration not stated)	Active
